Test results as given in ChEMBL document CHEMBL4602691, “Selective DYRK1A Inhibitor for the Treatment of Type 1 Diabetes: Discovery of 6-Azaindole Derivative GNF2133” (J Med Chem, 2020).

How the values were obtained:
[1] = Metabolic stability in mouse liver microsomes assessed as intrinsic clearance at 1 uM incubated for 30 mins by LC-MS/MS analysis; type: ADME, Microsome; conditions: 0.5 h
[2] = Metabolic stability in rat liver microsomes assessed as intrinsic clearance at 1 uM incubated for 30 mins by LC-MS/MS analysis; type: ADME, Microsome; conditions: 0.5 h
[3] = Metabolic stability in human liver microsomes assessed as intrinsic clearance at 1 uM incubated for 30 mins by LC-MS/MS analysis; type: ADME, Microsome; conditions: 0.5 h
[4] = Aqueous solubility of compound at pH 6.8; type: physicochemical; conditions: aqueous medium
[5] = Cmax in CD-1 mouse at 30 mg/kg, po; type: ADME, organism-based; parameters: dose 30 mg/kg, route oral; conditions: in vivo
[6] = Cmax in CD-1 mouse pancreas at 30 mg/kg, po; type: ADME, organism-based; parameters: dose 30 mg/kg, route oral
[7] = AUC in CD-1 mouse pancreas at 30 mg/kg, po; type: ADME, organism-based
[8] = Volume of distribution at steady state in CD-1 mouse at 2 mg/kg, iv; type: ADME, organism-based; conditions: in vivo, read-out: Vdss
[9] = Half life in CD-1 mouse pancreas at 30 mg/kg, po; type: ADME, organism-based
[10] = Clast in CD-1 mouse pancreas at 30 mg/kg, po; type: ADME, organism-based; conditions: in vivo, read-out: Clast
[11] = Clast in CD-1 mouse at 2 mg/kg, iv; type: ADME, organism-based; conditions: in vivo, read-out: Clast
[12] = AUC in CD-1 mouse at 30 mg/kg, po; type: ADME, organism-based; conditions: in vivo
[13] = Tmax in CD-1 mouse pancreas at 30 mg/kg, po; type: ADME, organism-based
[14] = Oral bioavailability in CD-1 mouse at 30 mg/kg; type: ADME, organism-based; conditions: in vivo
[15] = Clearance in CD-1 mouse at 2 mg/kg, iv; type: ADME, organism-based; conditions: in vivo
[16] = Half life in CD-1 mouse at 2 mg/kg, iv; type: ADME, organism-based; conditions: in vivo
[17] = AUC in CD-1 mouse at 2 mg/kg, iv; type: ADME, organism-based; conditions: in vivo
[18] = Tmax in CD-1 mouse at 30 mg/kg, po; type: ADME, organism-based; conditions: in vivo
[19] = Clast in CD-1 mouse at 30 mg/kg, po; type: ADME, organism-based; conditions: in vivo, read-out: Clast
[20] = Half life in CD-1 mouse at 30 mg/kg, po; type: ADME, organism-based; conditions: in vivo
[21] = Cmax in CD-1 mouse at 2 mg/kg, iv; type: ADME, organism-based; parameters: dose 2 mg/kg, route intravenous; conditions: in vivo
[22] = Tmax in CD-1 mouse at 2 mg/kg, iv; type: ADME, organism-based; conditions: in vivo

SMILES	CLH [1]	CLH [2]	CLH [3]	also measured
CC(C)Cn1cc(-c2ccncc2)c2ccncc21	95%	79%	83%	–
CCN1CCN(C(=O)Nc2cc(-c3cn(C4CCOCC4)c4cnccc34)ccn2)CC1	30%	18%	28%	solubility [4]: > 175 µM
c1ccc(Cn2cc(-c3ccncc3)c3ccncc32)cc1	90%	67%	83%	–
C[C@@H]1CN(C(=O)Nc2cc(-c3cn([C@H]4CC[C@@](C)(O)CC4)c4cnccc34)ccn2)C[C@H](C)O1	23%	18%	21%	solubility [4]: > 175 µM
Nc1cc(-c2cn(-c3ccccc3)c3cnccc23)ccn1	94%	86%	87%	–
c1cc(-c2cn(C3CCOCC3)c3cnccc23)ccn1	91%	83%	–	–
CCN1CCN(C(=O)Nc2cc(-c3cn(C4CCOCC4)c4cnccc34)ccn2)CC1.Cl	–	–	–	Cmax [5]: 1680 nM; Cmax [6]: 13300 nM; AUC [7]: 144 µM·h; Vd [8]: 11 L/kg; half-life [9]: 6.6 h; concentration [10]: 1320 nM; concentration [11]: 36.6 nM; AUC [12]: 11 µM·h; Tmax [13]: 3 h; bioavailability [14]: 22.3%; clearance [15]: 23.5 mL/min/kg; half-life [16]: 6.6 h; AUC [17]: 3.27 µM·h; Tmax [18]: 3 h; concentration [19]: 19 nM; half-life [20]: 3.4 h; Cmax [21]: 1980 nM; Tmax [22]: 1.8 min
O=C(Nc1cc(-c2cn(C3CCOCC3)c3cnccc23)ccn1)NC1CC1	71%	42%	–	–
O=C(Nc1cc(-c2cn(C3CCOCC3)c3cnccc23)ccn1)N1CCOCC1	23%	25%	21%	–
C[C@@H]1CN(C(=O)Nc2cc(-c3cn(C4CCOCC4)c4cnccc34)ccn2)C[C@H](C)O1	23%	18%	–	–
CC1(Cn2cc(-c3ccncc3)c3ccncc32)COC1	90%	69%	39%	–
O=C(Nc1cc(-c2cn(-c3ccccc3)c3cnccc23)ccn1)NC1CC1	70%	60%	21%	–
O=C(Nc1cc(-c2cn(-c3ccccc3)c3cnccc23)ccn1)C1CC1	76%	50%	44%	–
c1ccc(-n2cc(-c3ccncc3)c3ccncc32)cc1	97%	90%	92%	–
c1cc(-c2cn(CC3CC3)c3cnccc23)ccn1	97%	87%	87%	–
CC1(C)CN(C(=O)Nc2cc(-c3cn(C4CCOCC4)c4cnccc34)ccn2)C1	43%	45%	43%	–
